From patent US10004701B2, “Methods and compositions for treating infection” (UNIVERSITY OF ROCHESTER, priority 2012, dated 2018)
Like-named read-outs stand apart in the source and are kept apart here.

How the values were obtained:
Test in all cases: AK assay 384-well format, Prestwick library screening
[1] = test system: S. aureus strain USA300-0114; format: cell-based, Staphylococcus aureus; conditions: for fold induction at 50 µM: Staphylococcus aureus, USA300, 3 h
[2] = test system: A. baumannii strain 98-37-09; format: cell-based, Acinetobacter baumannii; conditions: for fold induction at 50 µM: Acinetobacter baumannii, 983709, 3 h
K. pneumoniae = format: cell-based, Klebsiella pneumoniae; conditions: for fold induction at 50 µM: Klebsiella pneumoniae, 3 h
E. faecium = format: cell-based, Enterococcus faecium; conditions: for fold induction at 50 µM: Enterococcus faecium, 3 h
P. aeruginosa = format: cell-based, Pseudomonas aeruginosa; conditions: for fold induction at 50 µM: Pseudomonas aeruginosa, 3 h
E. coli = format: cell-based, Escherichia coli; conditions: 50 μM final drug concentration; for fold induction at 50 µM: Escherichia coli, 3 h
E. cloacae = format: cell-based, Enterobacter cloacae; conditions: for fold induction at 50 µM: Enterobacter cloacae, 3 h
[3] = 50 μM final drug concentration, planktonic, cutoff for positive 3-fold increase
[4] = planktonic, […], read-out: AK-based Prestwick Library Screening Results, E. coli (fold increase in extracellular AK activity)
[5] = planktonic E. coli, 384-well, […], read-out: AK-based Prestwick Library Screening Results: E. coli (increase in extracellular AK activity)

## CC[C@H](C)[C@H]1O[C@]2(CC[C@@H]1C)C[C@@H]1C[C@@H](C/C=C(\C)[C@@H](O[C@H]3C[C@H](OC)[C@@H](O[C@H]4C[C@H](OC)[C@@H](O)[C@H](C)O4)[C@H](C)O3)[C@@H](C)/C=C/C=C3\CO[C@@H]4[C@H](O)C(C)=C[C@@H](C(=O)O1)[C@]34O)O2 [Ivermectin]
[1]; planktonic S. aureus, 50 μM final drug concentration, 384-well, […]
  AK-based Prestwick Library Screening Results: S. aureus (increase in extracellular AK activity): 2.1
[2]; planktonic A. baumannii, 50 μM final drug concentration, 384-well, […]
  AK-based Prestwick Library Screening Results: A. baumannii (increase in extracellular AK activity): 1.5
K. pneumoniae; planktonic K. pneumoniae, 50 μM final drug concentration, 384-well, […]
  AK-based Prestwick Library Screening Results: K. pneumoniae (increase in extracellular AK activity): 1.0
E. faecium; planktonic E. faecium, 50 μM final drug concentration, 384-well, […]
  AK-based Prestwick Library Screening Results: E. faecium (increase in extracellular AK activity): 1.2
P. aeruginosa; planktonic P. aeruginosa, 50 μM final drug concentration, 384-well, […]
  AK-based Prestwick Library Screening Results: P. aeruginosa (increase in extracellular AK activity): 1.0
E. coli; planktonic E. coli, 384-well, […]
  AK-based Prestwick Library Screening Results: E. coli (increase in extracellular AK activity): 1.3
E. cloacae; planktonic E. cloacae, 50 μM final drug concentration, 384-well, […]
  AK-based Prestwick Library Screening Results: E. cloacae (increase in extracellular AK activity): 1.6

## CO[C@@H]1[C@@H](O[C@@H]2O[C@H](C)[C@@H](O[C@H]3C[C@@](C)(O)[C@@H](OC(=O)CC(C)C)[C@H](C)O3)[C@H](N(C)C)[C@H]2O)[C@@H](CC=O)C[C@@H](C)[C@@H](O)/C=C/C=C/C[C@@H](C)OC(=O)C[C@H]1OC(C)=O [Josamycin]
[1]; planktonic S. aureus, 50 μM final drug concentration, 384-well, cutoff for positive-scoring molecules 3-fold increase, read-out: AK-based Prestwick Library Screening Results: S. aureus (increase in extracellular AK activity)
  fold induction at 50 µM: 8.4
[2]; planktonic A. baumannii, 50 μM final drug concentration, 384-well, cutoff for positive-scoring molecules 3-fold increase, read-out: AK-based Prestwick Library Screening Results: A. baumannii (increase in extracellular AK activity)
  fold induction at 50 µM: 1.1
K. pneumoniae; planktonic K. pneumoniae, 50 μM final drug concentration, 384-well, cutoff for positive-scoring molecules 3-fold increase, read-out: AK-based Prestwick Library Screening Results: K. pneumoniae (increase in extracellular AK activity)
  fold induction at 50 µM: 1
E. faecium; planktonic E. faecium, 50 μM final drug concentration, 384-well, cutoff for positive-scoring molecules 3-fold increase, read-out: AK-based Prestwick Library Screening Results: E. faecium (increase in extracellular AK activity)
  fold induction at 50 µM: 1
P. aeruginosa; planktonic P. aeruginosa, 50 μM final drug concentration, 384-well, cutoff for positive-scoring molecules 3-fold increase, read-out: AK-based Prestwick Library Screening Results: P. aeruginosa (increase in extracellular AK activity)
  fold induction at 50 µM: 0.9
E. coli; planktonic E. coli, 384-well, cutoff for positive-scoring molecules 3-fold increase, read-out: AK-based Prestwick Library Screening Results: E. coli (increase in extracellular AK activity)
  fold induction at 50 µM: 1.3
E. cloacae; planktonic E. cloacae, 50 μM final drug concentration, 384-well, cutoff for positive-scoring molecules 3-fold increase, read-out: AK-based Prestwick Library Screening Results: E. cloacae (increase in extracellular AK activity)
  fold induction at 50 µM: 1.4

## O=c1c(O)c(-c2ccc(O)cc2)oc2cc(O)cc(O)c12 [Kaempferol]
[1]; planktonic S. aureus, 50 μM final drug concentration, positive cutoff 3-fold increase, read-out: AK-based Prestwick library screening result, S. aureus (fold increase in extracellular AK activity)
  fold induction at 50 µM: 0.2
[2]; planktonic A. baumannii, 50 μM final drug concentration, positive cutoff 3-fold increase, read-out: AK-based Prestwick library screening result, A. baumannii (fold increase in extracellular AK activity)
  fold induction at 50 µM: 0.5
K. pneumoniae; planktonic K. pneumoniae, 50 μM final drug concentration, positive cutoff 3-fold increase, read-out: AK-based Prestwick library screening result, K. pneumoniae (fold increase in extracellular AK activity)
  fold induction at 50 µM: 0.6
E. faecium; planktonic E. faecium, 50 μM final drug concentration, positive cutoff 3-fold increase, read-out: AK-based Prestwick library screening result, E. faecium (fold increase in extracellular AK activity)
  fold induction at 50 µM: 1
P. aeruginosa; planktonic P. aeruginosa, 50 μM final drug concentration, positive cutoff 3-fold increase, read-out: AK-based Prestwick library screening result, P. aeruginosa (fold increase in extracellular AK activity)
  fold induction at 50 µM: 0.6
E. coli; planktonic E. coli, positive cutoff 3-fold increase, read-out: AK-based Prestwick library screening result, E. coli (fold increase in extracellular AK activity)
  fold induction at 50 µM: 0.5
E. cloacae; planktonic E. cloacae, 50 μM final drug concentration, positive cutoff 3-fold increase, read-out: AK-based Prestwick library screening result, E. cloacae (fold increase in extracellular AK activity)
  fold induction at 50 µM: 1.6

## NC[C@H]1O[C@H](O[C@H]2[C@H](O)[C@@H](O[C@H]3O[C@H](CO)[C@@H](O)[C@H](N)[C@H]3O)[C@H](N)C[C@@H]2N)[C@H](O)[C@@H](O)[C@@H]1O.O=S(=O)(O)O [Kanamycin A sulfate]
[1]; [3]
  AK-based Prestwick Library Screening Results, S. aureus (fold increase in extracellular AK activity): 2.5
[2]; [3]
  AK-based Prestwick Library Screening Results, A. baumannii (fold increase in extracellular AK activity): 1.1
K. pneumoniae; [3]
  AK-based Prestwick Library Screening Results, K. pneumoniae (fold increase in extracellular AK activity): 1.0
E. faecium; [3]
  AK-based Prestwick Library Screening Results, E. faecium (fold increase in extracellular AK activity): 0.9
P. aeruginosa; [3]
  AK-based Prestwick Library Screening Results, P. aeruginosa (fold increase in extracellular AK activity): 1.0
E. coli; planktonic, cutoff for positive 3-fold increase
  AK-based Prestwick Library Screening Results, E. coli (fold increase in extracellular AK activity): 1.2
E. cloacae; [3]
  AK-based Prestwick Library Screening Results, E. cloacae (fold increase in extracellular AK activity): 1.9

## CCN1C[C@]2(C)CC[C@H](O)[C@]34C1[C@@H](C[C@H]23)[C@@]1(O)C[C@H](OC)[C@H]2C[C@@H]4[C@@H]1[C@H]2O [Karakoline]
[1]; 50 μM final drug concentration, planktonic, […], read-out: AK-based Prestwick Library Screening Results, S. aureus (fold increase in extracellular AK activity)
  fold induction at 50 µM: 1.2
[2]; 50 μM final drug concentration, planktonic, […], read-out: AK-based Prestwick Library Screening Results, A. baumannii (fold increase in extracellular AK activity)
  fold induction at 50 µM: 1
K. pneumoniae; 50 μM final drug concentration, planktonic, […], read-out: AK-based Prestwick Library Screening Results, K. pneumoniae (fold increase in extracellular AK activity)
  fold induction at 50 µM: 0.9
E. faecium; 50 μM final drug concentration, planktonic, […], read-out: AK-based Prestwick Library Screening Results, E. faecium (fold increase in extracellular AK activity)
  fold induction at 50 µM: 1
P. aeruginosa; 50 μM final drug concentration, planktonic, […], read-out: AK-based Prestwick Library Screening Results, P. aeruginosa (fold increase in extracellular AK activity)
  fold induction at 50 µM: 1.1
E. coli; [4]
  fold induction at 50 µM: 1
E. cloacae; 50 μM final drug concentration, planktonic, […], read-out: AK-based Prestwick Library Screening Results, E. cloacae (fold increase in extracellular AK activity)
  fold induction at 50 µM: 1.3

## COC1=CC(=O)O[C@@H](/C=C/c2ccccc2)C1 [Kawain]
[1]; planktonic S. aureus, 50 μM final drug concentration, 384-well, […], read-out: AK-based Prestwick Library Screening Results: S. aureus (increase in extracellular AK activity)
  fold induction at 50 µM: 1
[2]; planktonic A. baumannii, 50 μM final drug concentration, 384-well, […], read-out: AK-based Prestwick Library Screening Results: A. baumannii (increase in extracellular AK activity)
  fold induction at 50 µM: 1.2
K. pneumoniae; planktonic K. pneumoniae, 50 μM final drug concentration, 384-well, […], read-out: AK-based Prestwick Library Screening Results: K. pneumoniae (increase in extracellular AK activity)
  fold induction at 50 µM: 1
E. faecium; planktonic E. faecium, 50 μM final drug concentration, 384-well, […], read-out: AK-based Prestwick Library Screening Results: E. faecium (increase in extracellular AK activity)
  fold induction at 50 µM: 1.1
P. aeruginosa; planktonic P. aeruginosa, 50 μM final drug concentration, 384-well, […], read-out: AK-based Prestwick Library Screening Results: P. aeruginosa (increase in extracellular AK activity)
  fold induction at 50 µM: 1
E. coli; [5]
  fold induction at 50 µM: 1.1
E. cloacae; planktonic E. cloacae, 50 μM final drug concentration, 384-well, […], read-out: AK-based Prestwick Library Screening Results: E. cloacae (increase in extracellular AK activity)
  fold induction at 50 µM: 1.4

## CC(=O)N1CCN(c2ccc(OCC3COC(Cn4ccnc4)(c4ccc(Cl)cc4Cl)O3)cc2)CC1 (centres unmarked) [Ketoconazole]
[1]; 50 μM final drug concentration, planktonic, cutoff for positive 3-fold increase, read-out: AK-based Prestwick Library Screening Results, S. aureus (fold increase in extracellular AK activity)
  fold induction at 50 µM: 1.2
[2]; 50 μM final drug concentration, planktonic, cutoff for positive 3-fold increase, read-out: AK-based Prestwick Library Screening Results, A. baumannii (fold increase in extracellular AK activity)
  fold induction at 50 µM: 1.5
K. pneumoniae; 50 μM final drug concentration, planktonic, cutoff for positive 3-fold increase, read-out: AK-based Prestwick Library Screening Results, K. pneumoniae (fold increase in extracellular AK activity)
  fold induction at 50 µM: 1.2
E. faecium; 50 μM final drug concentration, planktonic, cutoff for positive 3-fold increase, read-out: AK-based Prestwick Library Screening Results, E. faecium (fold increase in extracellular AK activity)
  fold induction at 50 µM: 0.9
P. aeruginosa; 50 μM final drug concentration, planktonic, cutoff for positive 3-fold increase, read-out: AK-based Prestwick Library Screening Results, P. aeruginosa (fold increase in extracellular AK activity)
  fold induction at 50 µM: 1.1
E. coli; [4]
  fold induction at 50 µM: 1.3
E. cloacae; 50 μM final drug concentration, planktonic, cutoff for positive 3-fold increase, read-out: AK-based Prestwick Library Screening Results, E. cloacae (fold increase in extracellular AK activity)
  fold induction at 50 µM: 1.5

## CC(C(=O)O)c1cccc(C(=O)c2ccccc2)c1 (centres unmarked) [Ketoprofen]
[1]; read-out: AK-based Prestwick Library Screening Results: S. aureus (increase in extracellular AK activity)
  fold induction at 50 µM: 1
[2]; read-out: AK-based Prestwick Library Screening Results: A. baumannii (increase in extracellular AK activity)
  fold induction at 50 µM: 1
K. pneumoniae; read-out: AK-based Prestwick Library Screening Results: K. pneumoniae (increase in extracellular AK activity)
  fold induction at 50 µM: 1.1
E. faecium; read-out: AK-based Prestwick Library Screening Results: E. faecium (increase in extracellular AK activity)
  fold induction at 50 µM: 0.9
P. aeruginosa; read-out: AK-based Prestwick Library Screening Results: P. aeruginosa (increase in extracellular AK activity)
  fold induction at 50 µM: 1
E. coli; [5]
  fold induction at 50 µM: 1.1
E. cloacae; read-out: AK-based Prestwick Library Screening Results: E. cloacae (increase in extracellular AK activity)
  fold induction at 50 µM: 1.5
